Data set [1] relates to HS766-T human pancreatic cancer cells. The data set can be described thus: HS766-T human pancreatic tumor model in NMRI nu/nu mice. In kind it is in vivo. Here is the method:
(§1) A combination of glufosfamide and gemcitabine was administered daily for 7 days to female NMRI nu/nu mice that were carrying tumors derived from HS766-T or As-PC-1 human pancreatic cancer cells. Mice were administered doses of vehicle control (0.9% sodium chloride solution, i.v.), gemcitabine (i.p.), glufosfamide (i.v.) or gemcitabine/glufosfamide combinations once daily for 7 consecutive days. A dose of 1.25 mg/kg was used as the standard dose for gemcitabine throughout the study.

Data set [2] deals with MiPaca2 human pancreatic cancer cells. Put plainly: MiPaca2 human pancreatic tumor model in nude mice. The class given is in vivo. The method, then: A combination of glufosfamide and gemcitabine was administered to nude mice that were carrying tumors derived from type MiPaca2 human pancreatic cancer cells. Mice were administered doses of vehicle control, gemcitabine, glufosfamide, or gemcitabine/glufosfamide combinations as tabulated in Table 1 below (10 mice/group). Glufosfamide was administered i.v., daily for 14 days (Groups 1-4 and 7-12). Gemcitabine was administered at 300 mg/kg, i.p., once a week for three weeks (Groups 6 and 10-12). Gemcitabine was administered at 150 mg/kg, i.p., twice a week for three weeks (Groups 5 and 7-9).

The subject of data set [3] is As-PC-1 human pancreatic cancer cells. The data set can be described thus: As-PC-1 human pancreatic tumor model in NMRI nu/nu mice. In kind it is in vivo. The following applies: glufosfamide i.v. and gemcitabine 1.25 mg/kg i.p., alone or in combination, once daily for 7 days. The method, then:
as §1

Data set [4] concerns pancreatic cancer cell lines. The conditions noted are these: in vitro; cited from earlier work.
The test system of data set [5] is advanced pancreatic cancer. The conditions noted are these: patients with advanced pancreatic cancer; cited from earlier work.

For the compound `Nc1ccn([C@@H]2O[C@H](CO)[C@@H](O)C2(F)F)c(=O)n1` [gemcitabine, 2′-deoxy-2′,2′-difluoro-cytidine], in data set [1] (gemcitabine alone 1.25 mg/kg i.p. once daily for 7 days), the “inhibitory effect on tumor progression” value is recorded as “only a marginal inhibitory effect on tumor progression”. For the same compound, the “deaths of the animals” value in data set [2] (Group 5: gemcitabine 150 mg/kg i.p. twice a week for three weeks) is reported as “rapid deaths of the animals”. The “reduction in tumor size” value in data set [2] (Group 6: gemcitabine 300 mg/kg i.p. once a week for three weeks) is on record as “Approximately 50%”. Besides, the “inhibitory effect on tumor growth” value in data set [3] is recorded as “no apparent inhibitory effect on tumor growth”.
Turning to `Nc1nc2[nH]cc(CCc3ccc(C(=O)N[C@@H](CCC(=O)O)C(=O)O)cc3)c2c(=O)[nH]1` [Pemetrexed], the “activity against pancreatic cancer cell lines” value in data set [4] is reported as “active against pancreatic cancer cell lines in vitro”. For the same compound, the activity in patients result in data set [5] was “has shown activity in patients with advanced pancreatic cancer”.
Take `O=P(NCCCl)(NCCCl)O[C@@H]1O[C@H](CO)[C@@H](O)[C@H](O)[C@H]1O` [glufosfamide, β-D-glucosyl-ifosfamide mustard]: in data set [1] (10 mg/kg glufosfamide i.v. once daily for 7 days, compared with gemcitabine alone or vehicle control), the “onset of tumor growth” value is “dramatic delay in the onset of tumor growth”. Besides, the “reduction in tumor size” value in data set [2] (Group 3: glufosfamide 30 mg/kg i.v. daily for 14 days) and in data set [2] (Group 4: glufosfamide 100 mg/kg i.v. daily for 14 days) was “modest reduction in tumor size” throughout. Also, the “inhibitory effect on tumor growth” value in data set [3] is “no apparent inhibitory effect on tumor growth”.

The values are drawn from patent publication US20170157161A1, “Anti-Cancer Therapies” (Threshold Pharmaceuticals, Inc., priority 2015, published 2017).
